Patent US12458660B2, “Methods of attenuating an immune response by inhibition of BFL1” (CHILDREN'S HOSPITAL MEDICAL CENTER, priority 2018, dated 2025)
Read-outs that look alike come from different tables or passages of the source. One block for each compound: values may come before it.

Columns and labels:
[1] = system: chorio-decidua neutrophils; experiment: Chorio-decidua neutrophil survival in culture (Annexin V-/7aad- by flow cytometry); type: cell-based, Rhesus
Experimental: Importantly, Bcl2A1 was specifically expressed by CD neutrophils, and rhIL1ra decreased BCL2A1+ neutrophils (FIG. 9B). Neutrophil expression of Bcl2A1 could be constitutive or induced. Since control CAD tissue have very few neutrophils, we compared expression of Bcl2A1 and other important mediators of apoptosis in CD neutrophils vs. blood neutrophils from the same IA LPS-exposed animals.
Neutrophils were cultured overnight (16 h) at 37° C., in 5% CO2 in DMEM:F12 containing 10% fetal bovine serum, 100 IU/ml penicillin, 100 IU/ml streptomycin, and 2 mmol/L glutamine, in 24-well plate ([…] were stained with a cocktail of Abs as above for immunophenotyping and analyzed by flow cytometry within 30 minutes and cell survival was indicated as percentage of Annexin V^−/7aad^− cells (BD Bioscience).
The chosen doses were optimum based on dose response curves that were generated using blood neutrophils. ABT737 concentrations≥1 μM were toxic to the cells (not shown).

primary splenocyte cells = experiment: In vitro apoptosis assay in activated primary splenocyte cells (trypan blue); type: cell-based, mice; conditions: WT and Bax/Bak-/- splenocytes, +/- polybrene
Experimental: An in vitro apoptosis assay utilizing primary splenocyte cells was used as a model system. In this system, compounds were added to wild-type primary splenocyte cells from mice that had been cultured and activated over four days. […] Mice deficient in Bax/Bak are unable to undergo intrinsic apoptosis due to the lack of the executioners in the pathway. […] Polybrene™ (hexadimethrine bromide) is a transfection reagent used to assist negatively-charged DNA molecules in traversal of the plasma membrane. Polybrene was included here to test whether it would improve the activity of negatively charged compounds.
Single-cell suspensions from spleen were generated by maceration through a 100 μm nylon mesh followed by LympholyteM ficoll gradient separation (Cedarlane Labs, Burlington, NC). Purified cells were then cultured on anti-CD3 coated (3 μg/mL, coated overnight, Biolegend, San Diego, CA) six-well plates in the presence of soluble anti-CD28 (2 μg/mL, Bio X Cell, West Lebanon, NH) and IL-2 (10 ng/mL, R&D Systems, Inc., Minneapolis, MN) in RPMI media (Life Technologies, Carlsbad, CA) for 24 hours at 37° C. Cells were then washed and cultured again in IL-2 (10 ng/mL) for 24 hours at 37° C. […]

[2] = biological target: T1, BCL2A1 (A1) - NOXA binding (Mus musculus, UniProt Q07440, C113S/P104K); experiment: Competition fluorescence polarization assay, displacement of FITC-labeled mNOXA peptide from A1; conditions: for additivity for inhibition of A1-Noxa binding, checkerboard assay: NSC-97318 (P2) with NSC-45195 (P4), wide range of concentrations; for inhibition of NOXA binding in combination: with NSC-15508
T1 construct: A1 residues 1-152 (P104K, C113S) were expressed in the BL21 strain of Escherichia coli; hexa-His-MBP (cleaved yes); made in house; host or cells: Escherichia coli BL21
T1 sequence (Q07440 1-152 P104K/C113S): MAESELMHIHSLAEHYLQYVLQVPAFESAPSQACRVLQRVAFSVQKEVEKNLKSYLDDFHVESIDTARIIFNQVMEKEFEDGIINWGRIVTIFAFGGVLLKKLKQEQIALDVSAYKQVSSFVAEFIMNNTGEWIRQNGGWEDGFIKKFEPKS
Experimental: Representative compounds were additionally tested for inhibition of BH3 binding through competition-based fluorescence polarization (FP) assays. These assays were carried out using fluorescently labeled NOXA peptide which binds within the BH3-binding groove. The FP assay measures the tumbling rate of the labeled NOXA peptide. When NOXA is bound to A1, its rate of tumbling is low (and FP is high), whereas an effective inhibitor compound will displace NOXA, causing a fast rate of tumbling (and low FP value). Initially, a single high-dose experiment was performed with each compound using 100 μM of compound with BCL2A1 and FITC-NOXA, to observe the relative inhibition of the A1-NOXA interaction (FIG. 17B).
These compounds and any that were three standard deviations or more above the thermal shift controls in the DSF assays, along with those that were initially derived from early compounds with reasonable IC50 values, were tested in a dose-response experiment. To this end, 30 putative P2 inhibitors and 44 putative P4 inhibitors had their IC50 values determined. Of the dose responses, there was a surprising enrichment of putative P4 inhibitors among those that had IC50 values less than 50 μM. […] The following linear equation was used in the calculations (Tallarida et al., 2011),
Compounds were additionally tested for specificity of binding by displacement of FITC-labeled mouse NOXA (mNoxa; Peptide 2.0) peptide via fluorescence polarization assay (FP). FP assays were performed in two steps: single-point high-concentration compounds and dose response of fluorescence polarization hits. A1 was added at 3 μM to 100 μM of each compound in 20 mM Tris pH 7, 500 mM NaCl, 0.005% Tween-20 buffer. After addition of 375 nM labeled mNOXA, 96-well plates were incubated overnight at 20° C. in the dark to achieve equilibrium before fluorescence polarization was measured with a Biotek Synergy H2. Autofluorescent compounds and fluorescent quenching compounds were corrected via ratiometric correction as described by Shapiro et al., 2009.
Dose response curves were measured by adding 3 μM A1 to a serial two-fold dilution series of each compound ranging from 400 μM to 781 nM in 20 mM Tris pH 7, 500 mM NaCl, 0.005% Tween-20 buffer. Some compounds were further tested to assess the accuracy of these two-fold dilutions with serial 1.33-fold dilutions. A1, compounds, buffer and lastly, 375 nM FITC-labeled mNOXA were added to each well and incubated in the dark at 20° C. overnight to achieve equilibrium, followed by measurement of polarization. All dose responses were performed in triplicate.

[3] = Anakinra (rhIL-1ra) pharmacokinetics in pregnant Rhesus macaques, human IL-1ra ELISA; type: in vivo, Rhesus macaques (Macaca mulatta)
Experimental: Recombinant human IL-1 receptor antagonist (“Anakinra” or “rhIL 1ra”) was injected into the amniotic fluid (“AF”) and subcutaneously in the dams (FIG. 3A). […] The low (0.2%) diffusion of Anakinra from maternal blood to amniotic fluid 2 h after maternal subcutaneous (SC) before the AF Anakinra dosing is notable. In addition, a slower clearance of Anakinra from the AF compared to maternal plasma is observed.
(§1) All animal procedures were approved by the Institutional Animal Care and Use Committee at the University of California, Davis. Normally cycling, adult female rhesus macaques (Macaca mulatta) (n=43) were time mated. At ˜130 d of gestation (˜80% of term gestation), the pregnant rhesus received either 1 ml saline solution (n=16) or 1 mg LPS (Sigma-Aldrich, St. Louis, MO) in 1 ml saline solution by ultrasound-guided IA injection. Dams were surgically delivered 16 h (n=13) or 48 h (n=8) later. Multiparous macaques and their fetuses were similar in demographics (Table 4). After delivery, fetuses were euthanized with pentobarbital, and fetal tissues were collected. There were no spontaneous deaths or preterm labor in the animals. IL-1 signaling was blocked by recombinant human IL-1R antagonist (rhIL-1RA; Anakinra Sobi, Stockholm, Sweden) given to the pregnant monkey IA (50 mg) and subcutaneous (100 mg) 1 and 3 h before LPS, as previously described (Rueda et al., 2016; FIG. 3).
Cytokine/chemokine concentrations in AF, fetal, and maternal plasma were determined by Luminex using non-human primate multiplex kits (Millipore). Lipids were extracted from the AF using methanol to measure Prostaglandins PGE2 (Oxford Biomedical Research, Oxford, MI) and PGF2a (Cayman Chemical, Ann Arbor, MI) concentrations. Anakinra (rhIL1ra) levels in AF, fetal, and maternal plasma were determined by human IL1ra/IL-1F3 Quantikine ELISA kit (R&D System, Minneapolis, […]). This kit has low cross-reactivity to Rhesus IL-1ra.

[4] = system: IA LPS-induced chorioamnionitis (IL-1 signaling); experiment: LPS-induced chorioamnionitis Rhesus monkey model with IL-1R blockade; type: in vivo, Rhesus macaques (Macaca mulatta)
Source text: We utilized the LPS-induced chorioamnionitis Rhesus monkey model system to study the pathogenesis of IUI, and particularly the role of IL-1 signaling in chorioamnionitis. A human recombinant IL-1 receptor antagonist (referred to herein as “hIL-lra” or by its generic name, “anakinra”) which inhibits both IL-1β and IL-lα signaling was used to experimentally block IL-1 signaling.
as §1
Both Rhesus and human purified decidua cell suspensions were prepared as previously described (Presicce et al., 2015). Briefly, extra-placental membranes were dissected away from the placenta. Decidua cells were scraped from the amnion-chorion. Amnion was then separated from chorion and flash-frozen for protein and RNA studies. Decidua tissue was washed, and digested with Dispase II (Life Technologies, Grand Island, NY) plus collagenase A (Roche, Indianapolis, IN) for 30 min followed by DNase I (Roche) treatment for another 30 min. Cell suspensions were filtered subjected to Red blood cell lysis and prepared for flow cytometry. Viability was >90% by trypan blue exclusion test.
Commercially available monoclonal antibodies (mAbs) were used for multiparameter flow cytometry (LSR Fortessa 2, BD Biosciences, San Diego, CA) and immunophenotyping was done on fresh chorio-decidua cell suspensions, except for T-cell phenotyping, which was done on cultured cells since cell isolation procedure down-regulates CD4/8 expression. Chorio-decidua cell TNFα expression was measured by flow cytometry with anti-TNF Ab (Cytofix/Cytoperm; BD Bioscience). To measure cytokine expression induced by in vivo exposures, flow cytometry was done on cells immediately after isolation without any stimulation and/or intracellular blockers. For all protocols, cells were treated with […] human immunoglobulin G (IgG) to block Fc receptors, stained for surface markers for 30 min at 4° C. in PBS, washed, and fixed in fixative stabilizing buffer (BD Bioscience). All antibodies were titrated for optimal detection of positive populations and mean fluorescence intensity. At least 500,000 events were recorded for each sample. Doublets were excluded based on forward scatter properties, and dead cells were excluded using LIVE/DEAD Fixable Aqua dead cell stain (Life Technologies). Unstained and negative biological population were used to determine positive staining for each marker. Data were analyzed using FlowJo version 9.5.2 software (TreeStar Inc., Ashland, OR).
Immunofluorescence was performed as previously described (Presicce et al., 2015). Briefly, paraffin embedded Rhesus fetal membrane sections were sectioned, subjected to antigen-retrieval by microwave boiling in citrate buffer followed by incubation with either anti-human CXCL8 (product G265-8; 1:25 dilution; BD Biosciences), or BCL2A1 (product b450; 1:50 dilution; LSBio, Seattle, WA), in 10% normal horse serum/0.2% Tween-20 at 4° C. overnight. […]

Compound: CN(C)CC[C@H](CSc1ccccc1)Nc1ccc(S(=O)(=O)NC(=O)c2ccc(N3CCN(Cc4ccccc4-c4ccc(Cl)cc4)CC3)cc2)cc1[N+](=O)[O-] [ABT-737]
frequency of chorio-decidua Annexin V-/7aad- (non-apoptotic) neutrophils ([1]; 0.1 µM, cultured 16 hr): did not show any significant effect
concentrations toxic to the cells ([1]; dose response curves generated using blood neutrophils, not shown): ≥ 1000 nM

inhibition of Noxa binding in FP assays [2]: strong inhibition
additivity for inhibition of A1-Noxa binding, checkerboard assay [2]: low level additivity
Compound: Cc1ccc(NC(=O)c2cc3ccccc3c(/N=N/c3cc(S(=O)(=O)O)ccc3O)c2O)c(C)c1 [Compound 1.001]
effect on cell survival (primary splenocyte cells): some effect

IC50 ([2]; P4 inhibitor 79711 in combination with P2 inhibitor 97318, read-out: IC50 upon P2 and P4 ligand binding): 6.3 µM
IC50 ([2]; compound alone, inhibition of A1-NOXA binding, read-out: IC50): 17.1 µM
Compound: Cc1cc(N)ccc1/N=N/c1ccc(/N=N/c2ccc3cc(S(=O)(=O)O)cc(S(=O)(=O)O)c3c2)c(C)c1 [Compound 1.002]

additivity for inhibition of A1-Noxa binding, checkerboard assay [2]: low level additivity
inhibition of NOXA binding in combination [2]: cooperative inhibition
Compound: Cc1cc(O)ccc1/N=N/c1ccc2cc(S(=O)(=O)O)cc(S(=O)(=O)O)c2c1 [Compound 1.003]

inhibition of NOXA binding in combination [2]: cooperative inhibition
Compound: Cc1cc(/N=N/c2ccc(/N=N/c3c(O)c(S(=O)(=O)O)cc4cc(S(=O)(=O)O)ccc34)cc2C)ccc1/N=N/c1ccc2cc(S(=O)(=O)O)cc(S(=O)(=O)O)c2c1 [Compound 1.004]
increase in inhibition relative to NSC-45195 ([2]; SAR comparison): roughly a two-fold increase in inhibition

Compound: rhIL1ra: human recombinant IL-1 receptor antagonist which inhibits both IL-1β and IL-1α signaling
diffusion from maternal blood to amniotic fluid ([3]; 2 h after maternal subcutaneous dose, before AF dosing): 0.2%
transfer to fetal plasma ([3]; 19 h level, trans-placental transfer): substantial transfer
elimination in the AF compared to maternal blood ([3]; amniotic fluid vs maternal blood): slower
concentrations in AF and maternal blood ([3]; both compartments): therapeutic concentrations
LPS induced amniotic fluid concentration of PGE2 ([4]; ELISA of lipid extract): decreased
LPS-induced pIRAK1 in the amnion ([4]; IA LPS 16 h, immunoblot): decreased
expression of CSF3 in the amnion ([4]; IA LPS 16 h, mRNA): decreased
expression of CXCL8 in the amnion ([4]; IA LPS 16 h, mRNA): decreased
expression of IL6 in the amnion ([4]; IA LPS 16 h, mRNA): decreased
number (counts) of chorio-decidua neutrophils ([4]; IA LPS, FIG. 5B): to near controls levels
reduction of chorio-decidua neutrophil numbers ([4]; IA LPS, blocking IL-1R): ~90%
overall CD leukocyte counts ([4]; IA LPS, data not shown): decreased
CD16 expression in CD neutrophils ([4]; IA LPS, flow cytometry): to near control levels
CD63 expression in CD neutrophils ([4]; IA LPS, flow cytometry): to near control levels
chorio-decidua B-cell numbers ([4]; IA LPS, flow cytometry): to control levels
frequency of TNFα+ CD neutrophils ([4]; IA LPS, flow cytometry): reversed
neutrophil accumulation in the CD ([4]; IA LPS, flow cytometry): reversed
CAD expression of Bcl2A1 ([4]; LPS-exposed animals, quantitative PCR): reversed
BCL2A1+ neutrophils ([4]; chorio-decidua interface, cell count/HPF): decreased
IA LPS induced CD neutrophils expressing CXCL8 ([4]; immuno-histology): decreased
LPS induced amniotic fluid concentration of CXCL8 ([4]; multiplex ELISA): decreased
LPS induced amniotic fluid concentration of IL6 ([4]; multiplex ELISA): decreased
LPS induced amniotic fluid concentration of MCP1 ([4]; multiplex ELISA): decreased
